# According to paper PMC9764067 (Acta Pharmaceutica Sinica. B, 2022):
# How the values were obtained:
# [1] = system: cellular content of cholesterol; assay type: cell-based
# [2] = system: EBOVpp; assay type: cell-based, Ebola virus
# [3] = system: EBOV-GP/HIV-luc; assay type: cell-based, Ebola virus
molecule,measurement,setting,value
CCN(CC)CCO[C@H]1CC[C@@]2(C)C(=CC[C@@H]3[C@@H]2CC[C@]2(C)C(=O)CC[C@@H]32)C1 [U18666A],cellular content of cholesterol,[1],cholesterol accumulation
O=C1Nc2ccc(Cl)cc2[C@@](C#CC2CC2)(C(F)(F)F)O1 [efavirenz],inhibitory effect by time of drug addition,[2],maintained its inhibitory effect up to 8 hpi
heparin,effect on uptake of viral genomic RNA (virus binding to the cell),[3],marked inhibition
